Experimental findings from PMC9231138, “Dihydrotanshinone I Enhances Cell Adhesion and Inhibits Cell Migration in Osteosarcoma U−2 OS Cells through CD44 and Chemokine Signaling” (Molecules, 2022) are described below.

The test system of one assay is HeLa cells. Description: MTT cell proliferation assay, HeLa cells. It counts as cell-based. Particulars: Homo sapiens, 24 h, read-out: IC50 HeLa cells (24 h). The protocol: The effects of tanshinones (DS−1 to DS−5) on the proliferation of U−2 OS cells, HeLa cells, and NRK−49F cells were measured by the classical MTT method with minor modifications as follows. Cells were seeded at 5000 per well in 96-well plates, with each group being repeated in 5 wells, and were incubated for 12 h. DS−1 to DS−5 were added at gradient concentrations, then incubated for 24 and 48 h, respectively. Then, 20 μL MTT solution (solved in PBS, 5 mg/mL) was added to every well, and the cells were further incubated at 37 °C for 4 h until a purple precipitate was visible. The plate was centrifuged at 1000 rpm for 1 min; the supernatant was suctioned, and 150 μL of DMSO was added per well; the plate was shaken on a shaker protected from light for 15 min. We placed the plate in an enzyme marker and measured the absorbance values at a 490 nm wavelength.
(Tetrazolium assays rely on reduction of a dye to a coloured formazan, in cell work by metabolically active cells.)

The next assay has as its system CDK4. As to the kind of experiment: RT-PCR CDK4 mRNA in U−2 OS cells. It counts as cell-based, human. Particulars: 24 h. The procedure: Total RNA within cells was extracted by the RNAeasy™ Animal Long RNA Isolation Kit with Spin Column (Shanghai, Beyotime); the concentrations and OD260/OD280 and OD230/OD260 values were measured by NanoDrop. Five micrograms of RNA was used for reverse transcription; each sample was diluted to 16 μL, and 4 μL of synthesized premix solution (5×) was added, then the mixtures were placed in a 42 °C water bath for 10 min, then an 80 °C water bath for 10 min to deactivate reverse transcriptase. After reverse transcription, each sample was diluted to 140 μL. PCR amplification was carried out by the ABI700 real-time PCR system, and the amplification reaction was detected with a SYBR probe. After PCR, actin and GAPDH were used as internal references, and the relative standard curve method (2^−ΔΔcT) determined the relative expression of mRNA.

With `Cc1cccc2c3c(ccc12)C1=C(C(=O)C3=O)[C@@H](C)CO1` [DS−1, 15,16-Dihydrotanshinone I], in the assay on HeLa cells, the IC50 stood at 15.5 ± 0.98 µM. Also, the “CDK4 mRNA, fold of the control group” value in the assay on CDK4 (first of three DS−1 doses (2.5 µM per Fig. 5 legend)) amounted to 0.53 ± 0.06 fold; in the assay with CDK4 (second of three DS−1 doses (5.0 µM per Fig. 5 legend)), 0.37 ± 0.02 fold; with CDK4 (third of three DS−1 doses (7.5 µM per Fig. 5 legend)), 0.29 ± 0.05 fold.

As usually defined, the IC50 is the concentration that gives 50% inhibition.
